# Test results reported in patent US10072282B2, “Modulators for SIRT6 and assays for screening same” (Cornell University, priority 2010, dated 2018).
# Legend:
# Sirt6 = Sirt6 (Homo sapiens, UniProt Q8N6T7); test: Fluorogenic acyl peptide-AMC assay with Sirt6; type: biochemical; details: AMC released by trypsin, fluorescence
# Description: (§1) FIGS. 6A, 6B. Charts showing the difference between fluorogenic acetyl peptide-AMC substrate (A) and heptyl peptide-AMC substrate (B) detection ability of Sirt6 and PfSir2 activity.
# (§2) With respect to the first reaction (deacylation by Sirt6, PfSir2a, or Sirt7), the pH for the reaction can be selected by taking the optimal pH of Sirt6, PfSir2a, or Sirt7 into consideration. The pH is typically adjusted to a pH of 6.0 to 8.5, or more particularly, a pH of 6.8 to 8.5. The reaction buffer preferably provides the above-mentioned pH. For example, Tris-HCl, HEPES-KOH, and other such buffers may be used in the instant method. More specifically, for example, 20 mM Tris-HCl having a pH of 7.4 can be used. Generally, NAD is a co-substrate required for Sirt6, PfSir2a, or Sirt7 functioning, and is typically used at about 0.5 mM concentration. Salts and preservatives are generally also included in the reaction solution. […]
# (§3) For sirtuins with robust deacetylase activity, a fluorogenic assay has been used to detect the activity and screen for inhibitors/activators (FIG. 5, top). […] After a sirtuin removes the acetyl group, the AMC can be released by trysin, which produces a fluorescence signal. Thus, the presence of a compound that can change the activity of sirtuin being analyzed can be detected by monitoring the fluoroscence released in the reaction. […]
# PfSir2a = PfSir2a (Plasmodium falciparum, UniProt Q8IE47); test: Fluorogenic acyl peptide-AMC assay with PfSir2a; type: biochemical; details: AMC released by trypsin, fluorescence
# PfSir2a, sequence (Q8IE47 whole entry): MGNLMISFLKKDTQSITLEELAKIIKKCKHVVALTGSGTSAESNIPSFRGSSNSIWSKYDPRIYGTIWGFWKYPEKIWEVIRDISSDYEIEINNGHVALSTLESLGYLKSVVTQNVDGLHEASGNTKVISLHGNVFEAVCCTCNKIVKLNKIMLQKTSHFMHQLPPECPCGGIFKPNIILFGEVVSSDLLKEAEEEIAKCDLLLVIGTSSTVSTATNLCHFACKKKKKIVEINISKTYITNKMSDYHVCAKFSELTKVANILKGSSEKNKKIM
# Description: as §1, §2, §3
# Sirt6, sequence (Q8N6T7 whole entry): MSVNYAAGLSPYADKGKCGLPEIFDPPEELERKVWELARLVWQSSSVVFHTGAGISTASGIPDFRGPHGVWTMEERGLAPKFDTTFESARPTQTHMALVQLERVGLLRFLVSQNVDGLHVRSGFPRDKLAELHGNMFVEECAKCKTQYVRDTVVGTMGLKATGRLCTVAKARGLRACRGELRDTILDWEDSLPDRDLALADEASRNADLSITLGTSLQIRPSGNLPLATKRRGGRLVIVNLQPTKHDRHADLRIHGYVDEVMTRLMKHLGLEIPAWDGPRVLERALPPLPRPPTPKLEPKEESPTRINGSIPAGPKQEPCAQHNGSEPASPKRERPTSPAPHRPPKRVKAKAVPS
Substance,detection of Sirt6 activity with peptide-AMC substrate (Sirt6),detection of PfSir2a activity with peptide-AMC substrate (PfSir2a)
ISGASE(acetyl-K)-AMC peptide [acetyl peptide-AMC],not detectable,not detectable
ISGASE(heptanoyl-K)-AMC peptide [heptanoyl peptide-AMC],can be used to detect the activity of Sirt6 and PfSir2a,can be used to detect the activity of Sirt6 and PfSir2a
